# Data from patent US20200093103A1, “BREEDING WATER FOR ANGUILLIFORMES AND METHOD FOR REARING ANGUILLIFORMES” (SHIN NIPPON BIOMEDICAL LABORATORIES, LTD., priority 2016, published 2020).
# System: Anguilla japonica leptocephali
# Experiment: Induction of Anguilla japonica metamorphosis by T4 treatment in 23° C. breeding water
# Type: in vivo
# Design: key: L: During life, no characteristics of metamorphosis seen.; Stage 1: Starting phase of metamorphosis. The rostral end is rounded, and intestinal degeneration starts.; Stage 2: Peak phase of metamorphosis. Intestinal degeneration becomes pronounced.; Stage 3: Late phase of metamorphosis.; Stage 4: Pre-glass eel stage. Almost the eel form, but the body height still remains
# Source text: Stage 1: Starting phase of metamorphosis. The rostral end is rounded, and intestinal degeneration starts.
# Stage 2: Peak phase of metamorphosis. Intestinal degeneration becomes pronounced. In the second half, the anus reaches to near the last vertical blood vessel (VBV last).
# Stage 3: Late phase of metamorphosis. The preanal length (PAL) becomes equal to or shorter than the last vertical blood vessel length (VBV last Length) (PAL VBV last Length). The body height is apparently low.
# Stage 4: Pre-glass eel stage. Almost the eel form, but the body height still remains. Melanophores on the body surface or endogenous melanophores are not yet seen.
# Elver stage: Juvenile stage. Food intake can be identified.
# A thyroid hormone (e.g., thyroxine (T4)) is adjusted to 50 to 100 mM in a 1- to 2-mL volume messflask. As a solvent, known solvents (water, alcohol) can be used. Ethanol is preferably used as the solvent.
# For example, using ethanol as a solvent, T4 adjusted to 50 mM is diluted 500-fold, 5,000-fold, and 50,000-fold, respectively, and adjusted to […], 1 μM, and 100 nM. A feed can be prepared in this manner.
# Artificial seawater is added to a breeding vessel, and 1/1000 of the […] T4 is added to prepare […] T4 breeding water.
# Half of the breeding water is replaced every two days with breeding water of the same concentration. In the case where the concentration is changed, for example, in the case of changing from 10 nM to 2 nM, 80% to the breeding water is removed, and unadjusted artificial seawater is newly added to make 1 L.
# Leptocephali visually considered to have reached a total length of 40 mm (or may be 30 mm to 50 mm, may be 35 mm to 45 mm, or may also be 35 mm or more, 40 mm or more, or 45 mm or more) are selected, anesthetized with 2-phenoxyethanol, and then photographed, and the total length of each larva is measured using an image analyzing device.
# The larvae are placed in 10 nM T4 breeding water and then placed in an incubator set at 23° C., and breeding is started. In first one week, observation is performed every two days, and half of the 10 nM T4 breeding water is replaced each time. The average amount of thyroid hormone in the breeding water in stage 1 is 1 nM to 100 nM, for example, and may also be 3 nM to 30 nM, or 5 nM to 20 nM.
# For larvae visually judged to have reached the second half of stage 2, the concentration of the breeding water is changed. The breeding water is diluted 5-fold or 10-fold and adjusted to 2 nM or 1 nM T4, and breeding is continued. The average amount of thyroid hormone in the breeding water in stage 2 may be, as compared with the breeding water of stage 1, diluted 2-fold to 20-fold, diluted 3 to 15-fold, or diluted 5 to 10-fold as described above. The average amount of thyroid hormone in the breeding water in stage 2 is 0.1 nM to 20 nM, for example, and may also be 0.5 nM to 10 nM, 1 nM to 5 nM, or 1 nM to 2 nM.
# For larvae visually judged to have reached stage 3, the breeding water is quickly changed 0.2 nM T4 breeding water, which is a 5-fold dilution of 1 nM T4 breeding water, and further changed to 0.1 nM T4 breeding water on the following day. […] Also, in larvae whose anus position has not reached the last vertical hemal spine, when they are judged to be on the brink of stage 3, the concentration is changed as above. The average amount of thyroid hormone in the breeding water in stage 3 may be, as compared with the breeding water of stage 2, diluted 2-fold to 50-fold, diluted 3 to 15-fold, diluted 4 to 6-fold, or diluted 5-fold as described above. The average amount of thyroid hormone in the breeding water in stage 3 is 0.01 nM to 2 nM, for example, and may also be 0.05 nM to 1 nM, 0.1 nM to 0.5 nM, or 0.1 nM to 0.2 nM. […] That is, the concentration may be changed such that the thyroid hormone becomes undetectable in the breeding water in the course of stage 3.
# In stage 3, breeding is continuously performed in the 0.1 nM T4 breeding water. […]
structure (smiles),measurement,setting,value
"N[C@@H](Cc1cc(I)c(Oc2cc(I)c(O)c(I)c2)c(I)c1)C(=O)O [T4, thyroxine]",metamorphosis stage,"individual Exp 5-4, 175 days old, total length 43.5 mm at start, c3 onward = treatment days 1,3,5,7,8,9,10,11,12,13,14,15,16,17,18, T4 (nM) 10,10,10,10,2,1,0.2,0.1,0.1,0.1,0.1,0.1, treatment day 1, T4 10 nM",L
same,metamorphosis stage,"individual Exp 5-4, 175 days old, total length 43.5 mm at start, c3 onward = treatment days 1,3,5,7,8,9,10,11,12,13,14,15,16,17,18, T4 (nM) 10,10,10,10,2,1,0.2,0.1,0.1,0.1,0.1,0.1, treatment day 3, T4 10 nM",L
same,metamorphosis stage,"individual Exp 5-4, 175 days old, total length 43.5 mm at start, c3 onward = treatment days 1,3,5,7,8,9,10,11,12,13,14,15,16,17,18, T4 (nM) 10,10,10,10,2,1,0.2,0.1,0.1,0.1,0.1,0.1, treatment day 5, T4 10 nM",2
same,metamorphosis stage,"individual Exp 5-4, 175 days old, total length 43.5 mm at start, c3 onward = treatment days 1,3,5,7,8,9,10,11,12,13,14,15,16,17,18, T4 (nM) 10,10,10,10,2,1,0.2,0.1,0.1,0.1,0.1,0.1, treatment day 7, T4 10 nM",2
same,metamorphosis stage,"individual Exp 5-4, 175 days old, total length 43.5 mm at start, c3 onward = treatment days 1,3,5,7,8,9,10,11,12,13,14,15,16,17,18, T4 (nM) 10,10,10,10,2,1,0.2,0.1,0.1,0.1,0.1,0.1, treatment day 8, T4 2 nM",2
same,metamorphosis stage,"individual Exp 5-4, 175 days old, total length 43.5 mm at start, c3 onward = treatment days 1,3,5,7,8,9,10,11,12,13,14,15,16,17,18, T4 (nM) 10,10,10,10,2,1,0.2,0.1,0.1,0.1,0.1,0.1, treatment day 9, T4 1 nM",2
same,metamorphosis stage,"individual Exp 5-4, 175 days old, total length 43.5 mm at start, c3 onward = treatment days 1,3,5,7,8,9,10,11,12,13,14,15,16,17,18, T4 (nM) 10,10,10,10,2,1,0.2,0.1,0.1,0.1,0.1,0.1, treatment day 10, T4 0.2 nM",2
same,metamorphosis stage,"individual Exp 5-4, 175 days old, total length 43.5 mm at start, c3 onward = treatment days 1,3,5,7,8,9,10,11,12,13,14,15,16,17,18, T4 (nM) 10,10,10,10,2,1,0.2,0.1,0.1,0.1,0.1,0.1, treatment day 11, T4 0.1 nM",2
same,metamorphosis stage,"individual Exp 5-4, 175 days old, total length 43.5 mm at start, c3 onward = treatment days 1,3,5,7,8,9,10,11,12,13,14,15,16,17,18, T4 (nM) 10,10,10,10,2,1,0.2,0.1,0.1,0.1,0.1,0.1, treatment day 12, T4 0.1 nM",3
same,metamorphosis stage,"individual Exp 5-4, 175 days old, total length 43.5 mm at start, c3 onward = treatment days 1,3,5,7,8,9,10,11,12,13,14,15,16,17,18, T4 (nM) 10,10,10,10,2,1,0.2,0.1,0.1,0.1,0.1,0.1, treatment day 13, T4 0.1 nM",3
same,metamorphosis stage,"individual Exp 5-4, 175 days old, total length 43.5 mm at start, c3 onward = treatment days 1,3,5,7,8,9,10,11,12,13,14,15,16,17,18, T4 (nM) 10,10,10,10,2,1,0.2,0.1,0.1,0.1,0.1,0.1, treatment day 14, T4 0.1 nM",3
same,metamorphosis stage,"individual Exp 5-4, 175 days old, total length 43.5 mm at start, c3 onward = treatment days 1,3,5,7,8,9,10,11,12,13,14,15,16,17,18, T4 (nM) 10,10,10,10,2,1,0.2,0.1,0.1,0.1,0.1,0.1, treatment day 15, T4 0.1 nM",4
same,metamorphosis stage,"individual Exp 5-5, 174 days old, total length 36.1 mm at start, c3 onward = treatment days 1,3,5,7,8,9,10,11,12,13,14,15,16,17, T4 (nM) 10,10,10,10,10,10,10,2,0.2,0.1,0.1,0.1,0.1,0.1, treatment day 1, T4 10 nM",L
same,metamorphosis stage,"individual Exp 5-5, 174 days old, total length 36.1 mm at start, c3 onward = treatment days 1,3,5,7,8,9,10,11,12,13,14,15,16,17, T4 (nM) 10,10,10,10,10,10,10,2,0.2,0.1,0.1,0.1,0.1,0.1, treatment day 3, T4 10 nM",L
same,metamorphosis stage,"individual Exp 5-5, 174 days old, total length 36.1 mm at start, c3 onward = treatment days 1,3,5,7,8,9,10,11,12,13,14,15,16,17, T4 (nM) 10,10,10,10,10,10,10,2,0.2,0.1,0.1,0.1,0.1,0.1, treatment day 5, T4 10 nM",L
same,metamorphosis stage,"individual Exp 5-5, 174 days old, total length 36.1 mm at start, c3 onward = treatment days 1,3,5,7,8,9,10,11,12,13,14,15,16,17, T4 (nM) 10,10,10,10,10,10,10,2,0.2,0.1,0.1,0.1,0.1,0.1, treatment day 7, T4 10 nM",L
same,metamorphosis stage,"individual Exp 5-5, 174 days old, total length 36.1 mm at start, c3 onward = treatment days 1,3,5,7,8,9,10,11,12,13,14,15,16,17, T4 (nM) 10,10,10,10,10,10,10,2,0.2,0.1,0.1,0.1,0.1,0.1, treatment day 8, T4 10 nM",2
same,metamorphosis stage,"individual Exp 5-5, 174 days old, total length 36.1 mm at start, c3 onward = treatment days 1,3,5,7,8,9,10,11,12,13,14,15,16,17, T4 (nM) 10,10,10,10,10,10,10,2,0.2,0.1,0.1,0.1,0.1,0.1, treatment day 9, T4 10 nM",2
same,metamorphosis stage,"individual Exp 5-5, 174 days old, total length 36.1 mm at start, c3 onward = treatment days 1,3,5,7,8,9,10,11,12,13,14,15,16,17, T4 (nM) 10,10,10,10,10,10,10,2,0.2,0.1,0.1,0.1,0.1,0.1, treatment day 10, T4 10 nM",2
same,metamorphosis stage,"individual Exp 5-5, 174 days old, total length 36.1 mm at start, c3 onward = treatment days 1,3,5,7,8,9,10,11,12,13,14,15,16,17, T4 (nM) 10,10,10,10,10,10,10,2,0.2,0.1,0.1,0.1,0.1,0.1, treatment day 11, T4 2 nM",3
same,metamorphosis stage,"individual Exp 5-5, 174 days old, total length 36.1 mm at start, c3 onward = treatment days 1,3,5,7,8,9,10,11,12,13,14,15,16,17, T4 (nM) 10,10,10,10,10,10,10,2,0.2,0.1,0.1,0.1,0.1,0.1, treatment day 12, T4 0.2 nM",3
same,metamorphosis stage,"individual Exp 5-5, 174 days old, total length 36.1 mm at start, c3 onward = treatment days 1,3,5,7,8,9,10,11,12,13,14,15,16,17, T4 (nM) 10,10,10,10,10,10,10,2,0.2,0.1,0.1,0.1,0.1,0.1, treatment day 13, T4 0.1 nM",3
same,metamorphosis stage,"individual Exp 5-5, 174 days old, total length 36.1 mm at start, c3 onward = treatment days 1,3,5,7,8,9,10,11,12,13,14,15,16,17, T4 (nM) 10,10,10,10,10,10,10,2,0.2,0.1,0.1,0.1,0.1,0.1, treatment day 14, T4 0.1 nM",3
same,metamorphosis stage,"individual Exp 5-5, 174 days old, total length 36.1 mm at start, c3 onward = treatment days 1,3,5,7,8,9,10,11,12,13,14,15,16,17, T4 (nM) 10,10,10,10,10,10,10,2,0.2,0.1,0.1,0.1,0.1,0.1, treatment day 15, T4 0.1 nM",3
